Assay results reported in patent US20260263406A1, “SYNERGISTIC COMPOSITION FOR MODULATING EXPRESSION OF CD38” (CELAGENEX RESEARCH (INDIA) PVT. LTD., priority 2023, published 2026).

Experiments:
Assay type in all cases: in vivo, Sprague-Dawley rats
CD38 [1] = assay: Western blot of CD38 expression in liver tissues of streptozotocin-induced diabetic rats; parameters: % Decrease of CD38 Disease control: concentration or dose not given beside the values; settings: STZ diabetic rats; for % Decrease of CD38 Disease control: liver tissue, 28 days treatment, versus diabetic control G2
Protocol: (§1) “To evaluate the antidiabetic potential of the present compositions and its mechanistic role in controlling damages of vital tissues in streptozotocin-induced diabetic rats.”
(§2) • Species: Rats • Strain: Sprague-Dawley • Sex: Male • No. of animals: 36 Animals (n=6 per group) • Body weight: 110-130 g Animal House conditions • Lighting: 12/12-hour light-dark cycle • Temperature: 22±3° C. • Relative Humidity: 40 to 60%
(§3) Acclimatization: Animals have been acclimatized to the animal house environment for 2 weeks. The animal experiments were designed and conducted strictly in accordance with the guidelines of AEC. Streptozotocin (STZ) was freshly prepared in 0.1M citrate buffer (pH 4.5). T2D was induced experimentally by single intraperitoneal (i.p.) injection of low dose STZ (40 mg per kg) to the rats, kept fasted overnight. Animals were unfed for 12 h before the estimation of fasting blood glucose. When the fasting plasma glucose level had become above 250 mg dL-1 in 72 h after STZ administration, STZ treated animals were considered as diabetic and all the experimental animals were then kept without any treatment for a period of 2 weeks. The composition treatment was started on 15th day after STZ injection in the respective groups of rats.
(§4) Test sample was dissolved in water containing 0.1% v/v Dimethyl Sulfoxide (DMSO) for animal treatment. Diabetic rats were then treated with intracerebroventricular (i.c.v.) administration of test samples. The animals were divided in six groups each of which contained six rats:
(§5) Daily food and water consumptions were observed and body weights were taken on a weekly basis. After 72 h of STZ administration, blood was drawn from tail vein of rats and fasting blood glucose was measured by glucometer. On the last day of the experiment, all rats were sacrificed by common method of euthanasia. All animals were unfed for 12 h before being killed. Liver, kidneys, pancreas tissues and skeleton muscles were removed surgically and stored at −80° C. in a deep freezer for western blot analysis.
(§6) GLUT4 and CD38 expressions were evaluated by Western blot. For GLUT4 content analysis, membrane samples were prepared from skeletal muscles and for CD38 protein analysis, liver tissues were used. In Western blot analysis, 25 μg of membrane protein per sample was subjected to Sodium Dodecyl Sulfate (SDS) polyacrylamide gel electrophoresis in parallel with molecular weight markers on a 10% resolving gel. The separated proteins were then transferred to a nitrocellulose membrane in a semidry system. β-tubulin was used to ensure equivalent loading of the gel incubating the same membrane with β-tubulin antibody after stripping.
(§7) Western blotting kit was used for immunodetection, using anti-GLUT4 and anti-CD38 antibodies. Detection was done by the enhanced chemiluminescence method and densitometric quantitation was done by scanning of the autoradiographic GLUT4 and CD38 signals with the help of software. Densitometric scanning was indicated the (percentage of band intensity) of GLUT4 bands and CD38 bands of test samples treated diabetic rats and diabetic control rats. Data were expressed as percentage increase or decrease of intensity of band.
(§8) Each value represents mean±SD (n=6). The significance of in vivo data was analyzed by one-way Anova followed by Dunnet test. P<0.05 was considered as significant.

CD38 [2] = assay: as above; settings: STZ diabetic rats, liver tissue, daily treatment for 28 days from day 15 after STZ, densitometry, n=6; normal control 100, diabetic control 112
GLUT4 [3] = assay: Western blot of GLUT4 expression in skeletal muscles of streptozotocin-induced diabetic rats; parameters: concentration or dose not given beside the values; settings: STZ diabetic rats, skeletal muscle, 28 days treatment, versus diabetic control G2
Protocol: as §1, §2, §3, §4, §5, §6, §7, §8

GLUT4 [4] = assay: as above; settings: STZ diabetic rats, skeletal muscle membrane, daily treatment for 28 days from day 15 after STZ, i.p. (Table 1), densitometry, n=6; normal control 100, diabetic control 80

Row | SMILES | % Decrease of CD38 Disease control (CD38 [1]) | Band Intensity of CD38 (%) 45 kDa (CD38 [2]) | % Increase of Glut4 over Disease control (GLUT4 [3]) | Band Intensity of GLUT4 (%) 54 kDa (GLUT4 [4]) | downregulation of CD38 (result in words) (CD38 [1]; discussion of the Western blot results)
1 | C[S+]([O-])CCCCN=C=S (stereo not drawn) [Composition G5, 1-isothiocyanato-4-methylsulfinylbutane] | 8.9% | 102% | 18.8% | 95% | 
2 | CC1=C(O)C(=O)C=C2C1=CC=C1[C@@]2(C)CC[C@@]2(C)[C@@H]3C[C@](C)(C(=O)O)CC[C@]3(C)CC[C@]12C [Composition G10, (2R,4aS,6aR,6aS,14aS,14bR)-10-hydroxy-2,4a,6a,6a,9,14a-hexamethyl-11-oxo-1,3,4,5,6,13,14,14b-octahydropicene-2-carboxylic acid] | 9.8% | 101% | 18.8% | 95% | 
3 | CCCCCCCCCCCCCCC(=O)O [Composition G8, Pentadecanoic acid] | 8.0% | 103% | 25.0% | 100% | 
4 | CC1=CC(=O)CC(C)(C)[C@@]1(O)/C=C/C(C)=C\C(=O)O [Composition G3, (2Z,4E)-5-[(1S)-1-hydroxy-2,6,6-trimethyl-4-oxocyclohex-2-en-1-yl]-3-methylpenta-2,4-dienoic acid] | 15.2% | 95% | 37.5% | 110% | not sufficient to give significant results
5 | CC(C)CC(N)C(=O)NC(CC(C)C)C(=O)O (stereo not drawn) [Composition G9, Dileucine] | 11.6% | 99% | 22.5% | 98% | 
6 | O=C(O)CC(=O)C(=O)O [Composition G6, Oxobutanedioic acid] | 9.8% | 101% | 27.5% | 102% | 
7 | CC(CN)C(=O)O (stereo not drawn) [Composition G4, 3-Aminoisobutyric acid] | 11.6% | 99% | 30.0% | 104% | 
8 | C[C@H](O)C(=O)N[C@@H](Cc1ccccc1)C(=O)O [Composition G7, (2S)-2-[[(2S)-2-hydroxypropanoyl]amino]-3-phenylpropanoic acid] | 14.3% | 96% | 32.5% | 106% | 
